The test system of data set [1] is MCF7. The data set can be described thus: Antiproliferative activity against human MCF7 cells assessed as reduction in cell growth incubated for 48 hrs in presence of Fer-1 by CCK8 assay. Particulars: MCF7, 48 h.
Data set [2] concerns MCF7. As to the kind of experiment: Induction of apoptosis in human MCF7 cells assessed as increase in cleaved caspase-9 level at 2 uM incubated for 48 hrs by Western blot analysis. Format: functional, cell-based. (Immunoblotting shows a protein as a band on a membrane.)
Data set [3] concerns MCF7. As to the kind of experiment: Antiproliferative activity against human MCF7 cells assessed as reduction in cell growth incubated for 48 hrs by CCK8 assay. Particulars: MCF7, 48 h. (In general: Tetrazolium dyes change colour on reduction, which living cells bring about.)
For data set [4], the target named is T1, Phospholipid hydroperoxide glutathione peroxidase GPX4 (Homo sapiens) (UniProt P36969).
T1 sequence (whole entry): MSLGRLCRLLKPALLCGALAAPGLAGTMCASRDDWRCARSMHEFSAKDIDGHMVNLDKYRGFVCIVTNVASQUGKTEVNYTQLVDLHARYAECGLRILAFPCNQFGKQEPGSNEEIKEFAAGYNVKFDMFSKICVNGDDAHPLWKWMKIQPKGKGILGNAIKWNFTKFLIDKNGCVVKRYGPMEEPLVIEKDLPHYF
As to the kind of experiment: Inhibition of GPX4 in human MCF7 cells assessed as increase in GPX4 degradation incubated for 48 hrs by Western blot analysis. The settings on record: dose 0.1-2 µM. Format: cell-based.

Data set [5] concerns the target E3 ubiquitin-protein ligase Mdm2 (Homo sapiens, UniProt Q00987). The data set can be described thus: Inhibition of MDM2 (unknown origin) using peptide as substrate incubated for 30 mins by fluorescence polarization assay.
In a further data set the test system is MCF-10A. The data set can be described thus: Cytotoxicity against human MCF-10A cells assessed as reduction in cell viability incubated for 48 hrs by CCK8 assay. Format: cell-based.
Data set [6] concerns MCF7. As to the kind of experiment: Induction of apoptosis in human MCF7 cells at 0.1 to 1 uM incubated for 48 hrs in presence of Fer-1 by annexin-V-FITC and PI staining based flow cytometry analysis. In kind it is functional, cell-based. Particulars: dose 0.1-1 µM. On the technique in general: Flow cytometry measures light scatter and fluorescence of single cells or particles in a stream.

Data set [7] has as its system MCF7. As to the kind of experiment: Induction of apoptosis in human MCF7 cells at 0.1 to 1 uM incubated for 48 hrs by annexin-V-FITC and PI staining based flow cytometry analysis. In kind it is functional, cell-based. The settings on record: dose 0.1-1 µM.

pIC50, pKi: −log10 of the molar value. Activity calls are given as the source filed them. No cut-off for these calls is given here.

The term pIC50 denotes −log10 of the IC50, conventionally taken in molar units. One may read the pKi as the negative decadic logarithm of the Ki, by convention in mol/L. Higher therefore signals a low Ki.

Sequence of E3 ubiquitin-protein ligase Mdm2 (Q00987 whole entry): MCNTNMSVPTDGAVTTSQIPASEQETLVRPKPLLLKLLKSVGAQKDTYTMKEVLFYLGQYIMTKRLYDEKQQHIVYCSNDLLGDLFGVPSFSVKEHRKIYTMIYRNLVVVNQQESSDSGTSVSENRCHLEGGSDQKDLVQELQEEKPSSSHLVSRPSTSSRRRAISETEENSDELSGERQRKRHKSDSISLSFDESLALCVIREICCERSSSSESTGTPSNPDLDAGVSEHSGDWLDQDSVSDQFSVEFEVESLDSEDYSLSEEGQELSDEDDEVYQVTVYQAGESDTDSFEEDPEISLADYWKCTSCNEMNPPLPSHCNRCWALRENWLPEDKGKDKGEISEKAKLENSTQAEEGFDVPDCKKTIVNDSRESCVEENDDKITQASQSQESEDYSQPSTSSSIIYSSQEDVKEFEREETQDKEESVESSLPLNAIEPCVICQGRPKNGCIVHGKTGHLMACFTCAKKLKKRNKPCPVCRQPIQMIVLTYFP

Turning to `COc1ccc(C2=NC(c3ccc(Cl)cc3)C(c3ccc(Cl)cc3)N2C(=O)N2CCNC(=O)C2)c(OC(C)C)c1` (stereo not drawn), the pIC50 in the data set on MCF7 [1] is 4.80; with MCF7 [3], 4.83. Moreover, in the data set with MCF7 [2], the outcome was Active. For the same compound, the inhibition entry in data set [4] is “inactive”.
As for `C=CCN1C(=O)[C@@]2(N[C@@H](C(F)(F)F)[C@H](c3ccccc3)[C@H]2c2onc(C)c2[N+](=O)[O-])c2ccccc21`, the pIC50 with MCF7 [1] is < 4.70; in the data set on MCF7 [3] it was 5.47. Also, in data set [5], the pKi is < 5.00. Further, the Activity result in the data set with MCF-10A is listed as “Non-Toxic”.
On to `Cc1ccccc1[C@H]1[C@H](C(F)(F)F)N[C@@]2(C(=O)Nc3ccccc32)[C@@H]1c1onc(C)c1[N+](=O)[O-]`, for which the pIC50 in the data set with MCF7 [1] is < 4.70; in the data set on MCF7 [3] it was 5.46. In addition, the pKi in data set [5] was < 5.00. Also, the Activity result in the data set with MCF-10A was “Non-Toxic”.
Turning to `Cc1noc([C@@H]2[C@@H](c3ccccc3)[C@H](C(F)(F)F)N[C@@]23C(=O)Nc2ccccc23)c1[N+](=O)[O-]`, the results for the pIC50 in the data set with MCF7 [1] and in the data set on MCF7 [3] were 4.75 and 6.42, respectively. In addition, the Activity result with MCF-10A is “Non-Toxic”.
For `Cc1noc([C@@H]2[C@@H](c3ccc(Br)cc3)[C@H](C(F)(F)F)N[C@@]23C(=O)Nc2ccccc23)c1[N+](=O)[O-]`, in that order: 4.77, 5.52 and “Non-Toxic”.
For the compound `Cc1noc([C@@H]2[C@@H](c3cc(Cl)ccc3Cl)[C@H](C(F)(F)F)N[C@@]23C(=O)Nc2ccccc23)c1[N+](=O)[O-]`, the pIC50 is < 4.70 in the data set with MCF7 [1] and 5.40 with MCF7 [3]. In addition, the pKi in data set [5] was < 5.00. The Activity result in the data set with MCF-10A is recorded as “Non-Toxic”.
The corresponding values for `CC(=O)N1C(=O)[C@@]2(N[C@@H](C(F)(F)F)[C@H](c3ccccc3)[C@H]2c2onc(C)c2[N+](=O)[O-])c2ccccc21` are < 4.70, 5.49, < 5.00 and “Non-Toxic”.
For `Cc1noc([C@@H]2[C@@H](c3ccccc3Cl)[C@H](C(F)(F)F)N[C@@]23C(=O)Nc2ccccc23)c1[N+](=O)[O-]`, in that order: < 4.70, 5.42, < 5.00 and “Non-Toxic”.
`Cc1noc([C@@H]2C(c3ccco3)[C@H](C(F)(F)F)N[C@@]23C(=O)Nc2ccccc23)c1[N+](=O)[O-]` (single isomer, unassigned): the values for the pIC50 with MCF7 [1] and in the data set with MCF7 [3] were 4.84 and 5.84, respectively. The Activity result with MCF-10A is recorded as “Non-Toxic”.
As for `Cc1noc([C@@H]2[C@@H](c3ccccc3)[C@H](C(F)(F)F)N[C@@]23C(=O)Nc2ccc(Br)cc23)c1[N+](=O)[O-]`, the values for the pIC50 with MCF7 [1] and with MCF7 [3] were 4.79 and 6.26, respectively. The Activity entry in the data set on MCF-10A was “Non-Toxic”.
For the compound `Cc1noc([C@@H]2[C@@H](c3cccc4ccccc34)[C@H](C(F)(F)F)N[C@@]23C(=O)Nc2ccccc23)c1[N+](=O)[O-]`, the pIC50 is < 4.70 in the data set with MCF7 [1] and 5.14 in the data set on MCF7 [3]. The Activity result with MCF-10A is recorded as “Non-Toxic”.
For `Cc1noc([C@@H]2[C@@H](c3ccc(Cl)cc3)[C@H](C(F)(F)F)N[C@@]23C(=O)Nc2ccccc23)c1[N+](=O)[O-]`, in that order: < 4.70, 5.94 and “Non-Toxic”.
In the case of `Cc1noc([C@@H]2[C@@H](c3ccccc3)[C@H](c3ccccc3)N[C@@]23C(=O)Nc2ccccc23)c1[N+](=O)[O-]`, the values for the pIC50 in the data set on MCF7 [1] and in the data set on MCF7 [3] were < 4.70 and 5.28, respectively. Besides, the Activity entry in the data set with MCF-10A is reported as “Non-Toxic”.
As to `Cc1noc([C@@H]2[C@@H](c3ccccc3)[C@H](C(F)(F)F)N[C@@]23C(=O)Nc2ccc([N+](=O)[O-])cc23)c1[N+](=O)[O-]`, the pIC50 in the data set with MCF7 [1] was < 4.70; in the data set with MCF7 [3], 5.32. The Activity result in the data set on MCF-10A is “Non-Toxic”.
For `Cc1onc(C(=O)N2CCN(C(c3ccc(Cl)cc3)c3ccc(Cl)cc3)CC2)c1[N+](=O)[O-]`, the pIC50 in the data set with MCF7 [1] is < 4.70; with MCF7 [3] it was 7.12.
Regarding `Cc1noc([C@@H]2[C@@H](c3ccccc3)[C@H](C(F)(F)F)N[C@@]23C(=O)N(C)c2ccccc23)c1[N+](=O)[O-]`, the pIC50 with MCF7 [1] is < 4.70; with MCF7 [3], 5.45. Moreover, the pKi in data set [5] is < 5.00. For the same compound, the Activity result in the data set on MCF-10A is listed as “Non-Toxic”.
Turning to `Cc1noc([C@@H]2[C@@H](c3cccc(Br)c3)[C@H](C(F)(F)F)N[C@@]23C(=O)Nc2ccccc23)c1[N+](=O)[O-]`, the pIC50 in the data set on MCF7 [1] is < 4.70; in the data set with MCF7 [3] it was 5.64. The Activity result in the data set on MCF-10A is “Non-Toxic”.
Consider `Cc1noc([C@@H]2[C@@H](c3ccc(C(C)C)cc3)[C@H](C(F)(F)F)N[C@@]23C(=O)Nc2ccccc23)c1[N+](=O)[O-]`, for which the pIC50 with MCF7 [1] was < 4.70; with MCF7 [3], 5.55. Also, the Activity result in the data set on MCF-10A is recorded as “Non-Toxic”.
The corresponding values for `Cc1noc([C@@H]2C(c3cccs3)[C@H](C(F)(F)F)N[C@@]23C(=O)Nc2ccccc23)c1[N+](=O)[O-]` (single isomer, unassigned) are 4.72, 5.82 and “Non-Toxic”.
Turning to `Cc1ccc([C@H]2[C@H](C(F)(F)F)N[C@@]3(C(=O)Nc4ccccc43)[C@@H]2c2onc(C)c2[N+](=O)[O-])cc1`, the pIC50 in the data set on MCF7 [1] was 4.73; in the data set on MCF7 [3] it was 5.55. For the same compound, the Activity result in the data set with MCF-10A was “Non-Toxic”.
For `Cc1noc([C@@H]2[C@@H](c3ccc([N+](=O)[O-])cc3)[C@H](C(F)(F)F)N[C@@]23C(=O)Nc2ccccc23)c1[N+](=O)[O-]`, in that order: < 4.70, 5.27 and “Non-Toxic”.
Take `Cc1noc([C@@H]2[C@@H](c3cccc(F)c3)[C@H](C(F)(F)F)N[C@@]23C(=O)Nc2ccccc23)c1[N+](=O)[O-]`: the pIC50 was 4.81 with MCF7 [1] and 6.06 with MCF7 [3]. Besides, in the data set with MCF-10A, the Activity entry is on record as “Non-Toxic”.
With `COc1ccccc1[C@H]1[C@H](C(F)(F)F)N[C@@]2(C(=O)Nc3ccccc32)[C@@H]1c1onc(C)c1[N+](=O)[O-]`, the pIC50 in the data set on MCF7 [1] was < 4.70; in the data set on MCF7 [3] it was 5.34. In addition, in data set [5], the pKi was < 5.00. Also, the Activity result in the data set on MCF-10A is “Non-Toxic”.
As for `Cc1noc([C@@H]2[C@@H](c3ccccc3)[C@H](C(F)(F)F)N[C@@]23C(=O)Nc2cc(Br)ccc23)c1[N+](=O)[O-]`, the pIC50 was 4.86 in the data set on MCF7 [1] and 6.77 with MCF7 [3]. For the same compound, in the data set on MCF-10A, the Activity result is “Non-Toxic”. Also, the outcome in the data set on MCF7 [6] and in the data set with MCF7 [7] was Active.
On to `Cc1noc([C@@H]2[C@@H](c3ccc(F)cc3)[C@H](C(F)(F)F)N[C@@]23C(=O)Nc2ccccc23)c1[N+](=O)[O-]`, for which the values for the pIC50 with MCF7 [1] and with MCF7 [3] were 4.76 and 6.26, respectively. The Activity result in the data set with MCF-10A is recorded as “Non-Toxic”.
The corresponding values for `Cc1noc([C@@H]2[C@@H](c3ccccc3)[C@H](C(F)(F)F)N[C@@]23C(=O)Nc2ccc(Cl)cc23)c1[N+](=O)[O-]` are 4.70, 6.43 and “Non-Toxic”.
As for `Cc1noc([C@@H]2[C@@H](c3ccccc3)[C@H](C(F)(F)F)N[C@@]23C(=O)Nc2ccc(F)cc23)c1[N+](=O)[O-]`, the pIC50 is 4.81 in the data set on MCF7 [1] and 6.68 with MCF7 [3]. In addition, in the data set with MCF-10A, the Activity result is recorded as “Non-Toxic”.
`Cc1noc([C@@H]2[C@@H](c3ccccc3Br)[C@H](C(F)(F)F)N[C@@]23C(=O)Nc2ccccc23)c1[N+](=O)[O-]`: the pIC50 in the data set on MCF7 [1] was < 4.70; in the data set on MCF7 [3] it was 5.33. The pKi in data set [5] was < 5.00. For the same compound, in the data set on MCF-10A, the Activity result is “Non-Toxic”.
Consider `Cc1ccc2c(c1)[C@]1(N[C@@H](C(F)(F)F)[C@H](c3ccccc3)[C@H]1c1onc(C)c1[N+](=O)[O-])C(=O)N2`, for which the pIC50 in the data set with MCF7 [1] was 4.74; with MCF7 [3], 5.31. In the data set on MCF-10A, the Activity result is reported as “Non-Toxic”.
For the compound `Cc1noc([C@@H]2[C@@H](c3ccc(Cl)c(Cl)c3)[C@H](C(F)(F)F)N[C@@]23C(=O)Nc2ccccc23)c1[N+](=O)[O-]`, the pIC50 was < 4.70 with MCF7 [1] and 5.49 in the data set on MCF7 [3]. For the same compound, the Activity result in the data set on MCF-10A is on record as “Non-Toxic”.
For `COc1ccc([C@H]2[C@H](C(F)(F)F)N[C@@]3(C(=O)Nc4ccccc43)[C@@H]2c2onc(C)c2[N+](=O)[O-])cc1OC`, the pIC50 was < 4.70 in the data set on MCF7 [1] and 5.38 in the data set with MCF7 [3]. The Activity result in the data set on MCF-10A is listed as “Non-Toxic”.

These data come from ChEMBL document CHEMBL4813989, “Design, synthesis, and biological evaluation of nitroisoxazole-containing spiro[pyrrolidin-oxindole] derivatives as novel glutathione peroxidase 4/mouse double minute 2 dual inhibitors that inhibit breast adenocarcinoma cell proliferation” (Eur J Med Chem, 2021).
